These results are taken from paper PMC6480306 (General and comparative endocrinology, 2018).

This experiment has as its target T1, zebrafish mPRα (membrane progestin receptor alpha, Paqr7) (Danio rerio, UniProt Q801G2).
T1 sequence (Q801G2 1-354): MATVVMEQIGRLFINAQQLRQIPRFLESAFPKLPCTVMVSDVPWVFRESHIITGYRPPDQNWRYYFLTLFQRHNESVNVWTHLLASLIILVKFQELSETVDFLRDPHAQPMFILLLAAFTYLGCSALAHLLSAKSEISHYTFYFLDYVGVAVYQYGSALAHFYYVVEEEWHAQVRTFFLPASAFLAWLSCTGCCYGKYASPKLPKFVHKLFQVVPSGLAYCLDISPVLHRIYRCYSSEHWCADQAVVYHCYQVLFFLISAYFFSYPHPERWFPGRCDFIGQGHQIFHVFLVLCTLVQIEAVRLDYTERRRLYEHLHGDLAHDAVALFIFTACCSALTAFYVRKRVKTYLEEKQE
Put plainly: [3H]-DHP competitive radioligand binding, filtration assay.

As to `C=C[C@]12CCC(=O)C=C1CC[C@H]1[C@@H]3CC[C@H](C(C)=O)[C@@]3(C)CC[C@@H]12` [02–0, l0-ethenyl-l9-norprogesterone], the IC50 (as a rule, the concentration needed to halve the response being measured) worked out at 2000 nM. This lies in the single-digit micromolar range.

The compound `C[C@@H](O)[C@@]1(O)CC[C@H]2[C@@H]3CCC4=CC(=O)CC[C@]4(C)[C@H]3CC[C@@]21C` [DHP, 17, 20β-dihydroxy-4-pregnen-3-one] returned an IC50 of around 100 nM.
